Where two headings read alike, the source gives them in different places.
How the values were obtained:
[1] = system: P. falciparum strain 3D7; assay: Test for growth inhibitory activity against P. falciparum (infected erythrocytes, Giemsa thin blood film); assay type: cell-based, Plasmodium falciparum; details: for EC50: read-out: ED50 (50% growth inhibition concentration, EC50)
Description: To investigate growth inhibitory activity against a laboratory strain 3D7 of P. falciparum, the following various compounds were tested: inabenfide (Wako Pure Chemicals, Osaka, Japan), uniconazole P (Wako Pure Chemicals, Osaka, Japan), paclobutrazol (Wako Pure Chemicals, Osaka, Japan), AMO-1618 (CALBIOCHEM, La Jolla, Calif.) and FC-907 as gibberellin inhibitors; thidiazuron (Wako Pure Chemicals, Osaka, Japan), 6-benzyl aminopurine (Wako Pure Chemicals, Osaka, Japan), trans-zeatin (Wako Pure Chemicals, Osaka, Japan) and cis-zeatin (Sigma) as cytokinins; and α-aminooxy acetic acid (Wako Pure Chemicals, Osaka, Japan) as an ethylene inhibitor.
As a culture medium for the P. falciparum strain 3D7, filter-sterilized RPMI 1640 (pH 7.4) containing 10% (v/v) human serum and human erythrocytes at 3% hematocrit (the ratio of erythrocytes in a suspension thereof) was prepared. Each compound was dissolved at predetermined concentrations in an appropriate solvent (water, ethanol or DMSO) and added to wells. To each well, 3D7-infected erythrocytes were added at a starting parasitemia of 0.1% and the total volume was adjusted to 2.5 ml with the culture medium. The plates were incubated for 3 days. Control cultures were prepared so that instead of each compound solution, the equal volume of the corresponding solvent alone was contained, and similarly incubated. After the incubation, a thin blood film from each culture was prepared and stained with Giemsa (E. Merck, Germany). A total of 3000-erythrocytes/1 thin blood film were examined microscopically (immersed in oil, magnified to 1000 times), after which the malarial infection rate was determined using the equation below. The culture was maintained at 37° C. in a CO2—O2—N2 incubator (5% CO2, 5% O2, and 90% N2 atmosphere). The experiments were performed at least twice and each treatment was performed in triplicate. By comparison of the malarial infection rates obtained in control and compound-treated samples, the efficacy of each compound was assessed.
Malarial infection rate=[(number of infected erythrocytes)/(total number of examined erythrocytes)]×100
For compounds showing growth inhibitory activity, the 50% growth inhibition concentration (EC50) was calculated using the following equation.
X1: concentration of the compound showing <50% inhibition rate (μM) Y1: inhibition rate at the concentration X1 X2: concentration of the compound showing >50% inhibition rate (μM) Y2: inhibition rate at the concentration X2

[2] = system: T. gondii strain 2F tachyzoites; assay: Test for growth inhibitory activity against T. gondii (β-gal colorimetric proliferation assay in Vero cells); assay type: cell-based, Toxoplasma gondii; details: T. gondii 2F tachyzoites in Vero cells, 2 days
Description: To investigate growth inhibitory activity against T. gondii, the following various compounds were tested: inabenfide (Wako Pure Chemicals, Osaka, Japan), paclobutrazol (Wako Pure Chemicals, Osaka, Japan), uniconazole P (Wako Pure Chemicals, Osaka, Japan) and AMO-1618 (CALBIOCHEM, La Jolla, Calif.) as gibberellin inhibitors; thidiazuron (Wako Pure Chemicals, Osaka, Japan) and 6-benzyl aminopurine (Wako Pure Chemicals, Osaka, Japan) as cytokinins; and α-aminooxy acetic acid (Wako Pure Chemicals, Osaka, Japan) as an ethylene inhibitor.
For this test, T. gondii strain 2F tachyzoites were used. The strain 2F was established by transfection of the T. gondii strain RH with a β-galactosidase gene (β-gal, derived from Escherichia coli) [Reference: J. M. Dobrowolski and L. D. Sibley. Toxoplasma invasion of mammalian cells is powered by the actin cytoskeleton of the parasite. Cell 84, 933-939 (1996)]. The 2F strain was kindly provided by Dr. L. David Sibley (Washington University School of Medicine, St. Louis, Mo., US). As a host cell for the parasites, Vero cells were used. Vero cell cultures were incubated with RPMI 1640 medium containing 10% (v/v) FCS in 96-well plates for 2 days and then infected with 2.5×10^5 tachyzoites/well in RPMI 1640 medium containing 3% (v/v) FCS and various concentrations of the compounds. The tachyzoites were harvested after 2 days and the proliferation rate was monitored as a measure of β-gal activity in a colorimetric assay using chlorophenol red β-D-galactopyranoside. The proliferation rate of compound-untreated tachyzoites is set to 100% and the IC50 means the concentration of the compound that inhibits the proliferation rate by 50%.

[3] = Mice; Reported Data; cited from earlier work
[4] = Reported Data; cited from earlier work
[5] = P. falciparum 3D7, 3 days incubation, Table 1
[6] = Plasmodium falciparum, 3D7, Erythrocyte, 72 h

Compound | EC50 [1, 5] [µM] | EC50 [1, 6] [µM] | IC50 ([2]; Toxoplasma gondii, 48 h) [µM] | LD50 [3] [mg/kg] | Mutagenesis [4] | IC50 ([2]; read-out: IC50 Toxoplasma) [µM] | growth inhibition rate (Y1) ([1]; concentration 10 μM (X1), FIG. 1) | growth inhibition rate (Y2) ([1]; concentration 20 μM (X2), FIG. 1)
C/C(=C/CNc1ncnc2nc[nH]c12)CO [cis-Zeatin, cis-zeatin] | 742 |  |  |  |  |  |  | 
O=C(Nc1ccccc1)Nc1cnns1 [Thidiazuron, thidiazuron] |  | 17.5 | 74.5 | >5000 | No |  |  | 
NOCC(=O)O [α-Aminooxy acetic Acid, α-aminooxy acetic acid] |  | 20.3 | 96.9 |  |  |  |  | 
CC1=CCCC(C)(C)C1C=CC(C)[N+](C)(C)C (stereo not drawn) [FC-907, N,N,N-trimethyl-1-methyl-(2′,6′,6′-trimethylcyclohex-2′-en-1′-yl) prop-2-enylammonium iodide] | 4.26 |  |  |  |  |  |  | 
c1ccc(CNc2ncnc3nc[nH]c23)cc1 [6-Benzylaminopurine, 6-benzyl aminopurine] | 19 |  |  | 1300 | No | > 300 |  | 
C/C(=C\CNc1ncnc2nc[nH]c12)CO [trans-Zeatin, trans-zeatin] | 651 |  |  | 1300 |  |  |  | 
O=C(Nc1ccc(Cl)cc1C(O)c1ccccc1)c1ccncc1 (stereo not drawn) [Inabenfide, inabenfide] |  | 4.47 | 17 | >15000 | No |  |  | 
Cc1cc(OC(=O)N2CCCCC2)c(C(C)C)cc1[N+](C)(C)C.[Cl-] [AMO-1618] | 10.3 |  |  | 0.36 |  | > 1000 | 48.9 | 85.4
CC(C)(C)[C@@H](O)[C@@H](Cc1ccc(Cl)cc1)n1cncn1 [Paclobutrazol, paclobutrazol] |  | 27.1 | 121 | >5000 |  |  |  | 
CC(C)(C)[C@H](O)/C(=C\c1ccc(Cl)cc1)n1cncn1 [Uniconazole P, uniconazole P] | 25 |  |  | 1000 | No | 97.4 |  | 
